Values after ≈ are worked out from the molar mass of the structure shown. “Also recorded” adds a separate entry of the source. Like-named read-outs stand apart in the source and are kept apart here.
Legend:
AfPGMC353∗ [1] = molecular target: T1, AfPGMC353∗ (Aspergillus fumigatus, UniProt Q4WY53, C131S/C242S/C364S); test: Covalent modification, intact protein mass spectrometry, AfPGMC353∗; type: binding; conditions: AfPGMC353∗:ISFP1 1:20; single adduct on C353
T1 construct: Full length AfPGM; 6His-GST (N, cleaved yes); made in house; host or cells: E. coli BL21 (DE3) pLysS
Procedure: (§1) PGM was dissolved to 20 μM in Hepes buffer (25 mM Hepes–NaOH (pH 7.5), 150 mM NaCl) and incubated with compound (protein:compound 1:20; 2% (v/v) DMSO) at 20 °C for 10 min (for AfPGM) or 4 °C overnight (for AfPGMC353∗). Excess compound molecules were removed using desalting column (CentriPure P2, Generon). PGM (20 μM) incubated with DMSO at the same condition was utilized as a control. The removal of isothiazolone adducts was carried out through the incubation with DTT (10 mM) at 20 °C for 10 min. DTT was removed using a desalting column (CentriPure P2, Generon). The ring-opened isothiazolone protein modification was confirmed using intact protein mass spectrometry.

AfPGM [2] = molecular target: T2, AfPGM (Aspergillus fumigatus, UniProt Q4WY53); test: Biolayer interferometry fragment binding; conditions: 0 to 500 µM
T2 construct: Full length AfPGM; 6His-GST (N, cleaved yes); made in house; host or cells: E. coli BL21 (DE3) pLysS
Procedure: Amino groups of lysine side chains in PGM were biotinylated (EZ-Link NHSPEG4-Biotin) with one-to-one stoichiometry (one adduct per protein molecule). Biotinylated protein molecules were loaded on streptavidin-immobilized sensors (Super Streptavidin Biosensor). BLI was carried out using an Octet Red 384 instrument (ForteBio). Screening cycles included the baseline phase (protein was incubated for 60 s in screening buffer [25 mM Hepes–NaOH (pH 7.5), 150 mM NaCl, 2% DMSO (v/v]), the association phase (protein was incubated for 60 s in wells containing 200 μM fragment compounds dissolved in the screening buffer), and the dissociation phase (protein was incubated for 60 s in the screening buffer without any fragment compounds). Sensors blocked by biocytin were utilized as a control. Fragment compounds were purchased from Maybridge (1000 fragment compounds). Fragment compounds whose signal values were higher than the median value plus three times robust SD were considered as hits. The confirmation of hits was carried out using dose-response assays. Briefly, a BLI assay was carried out with each hit in a series of concentrations (from 0 to 500 μM). Running cycles included the baseline phase (60 s in the screening buffer), the association phase (120 s in the screening buffer with fragment compounds), and the dissociation phase (120 s in the screening buffer without compounds). […]

CaPGMC359S = molecular target: T3, CaPGMC359S (Candida albicans, UniProt A0A1D8PSA9, C359S); test: G6PDH coupled assay for PGM, CaPGM C359S mutant; type: biochemical; conditions: 5 nM enzyme, no preincubation
T3 sequence (A0A1D8PSA9 1-560 C359S): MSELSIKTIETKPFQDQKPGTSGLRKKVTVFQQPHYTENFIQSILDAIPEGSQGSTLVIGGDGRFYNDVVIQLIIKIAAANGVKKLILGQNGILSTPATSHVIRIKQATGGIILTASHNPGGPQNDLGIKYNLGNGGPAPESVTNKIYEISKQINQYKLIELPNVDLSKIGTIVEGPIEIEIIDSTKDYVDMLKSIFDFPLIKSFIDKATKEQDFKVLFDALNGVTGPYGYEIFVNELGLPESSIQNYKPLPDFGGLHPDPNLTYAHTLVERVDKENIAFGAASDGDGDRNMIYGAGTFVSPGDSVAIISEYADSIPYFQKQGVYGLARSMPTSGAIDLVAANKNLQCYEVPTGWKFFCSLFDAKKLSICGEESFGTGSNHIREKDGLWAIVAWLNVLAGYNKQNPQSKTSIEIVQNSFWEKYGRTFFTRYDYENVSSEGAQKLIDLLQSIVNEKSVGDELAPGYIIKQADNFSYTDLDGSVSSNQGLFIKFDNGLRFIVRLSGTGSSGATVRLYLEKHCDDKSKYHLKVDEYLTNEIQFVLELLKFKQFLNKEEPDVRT
Procedure: (§2) The reaction mixture contained MOPS–NaOH (pH 7.4; 50 mM), MgSO4 (1.5 mM), NADP^+ (1 mM), G6PDH (0.01 U) from L. mesenteroides, Glc-1P (500 μM), Glc-1,6-2P (50 μM), and enzyme (5 nM). The reaction was carried out at 25 °C for 6 min in a total volume of 100 μl. Formation of NADPH was detected in real-time (every 1.5 min), measuring fluorescence signal (excitation at 360 nm; emission at 460 nm). To measure the inhibitory activity, compounds with different concentrations (3% (v/v) DMSO) were added to the reaction system. IC50 values were calculated using the product (NADPH) concentration at 6 min with 500 μM Glc-1P.

A. fumigatus = test: Growth inhibition (MIC) of A. fumigatus; type: cell-based; conditions: Aspergillus fumigatus; preliminary experiments
From the text: Figure S12: Limited correlation between minimal inhibitory concentrations (MIC) and IC50 values of isothiazolone derivatives against AfPGM. […] The R^2 value of linear correlation is 0.15.

AfPGM [3] = molecular target: T2, AfPGM; test: AfPGM enzyme kinetics in the presence of ISFP1 (G6PDH coupled assay); type: biochemical
Procedure: As previously described, two speculated mechanisms, perturbing substrate binding or phosphoryl transfer, have been proposed based on the complex structure of CaPGM-ISFP1. […] As such, the inhibitory mechanism is likely to be a consequence of slowing the rate of phosphoryl transfer.
as §2
(§3) Figure S11: Representative enzyme activity assays for PGMs. Error bars represent standard deviation of three determinations. Panel A and B show the time course of PGMs and PGM mutants in which sugar recognition glutamates are mutated to glutamine. […] Values in parentheses indicate the time at which DTT (1 mM) was added.

HsPGM = molecular target: T4, HsPGM (Homo sapiens, UniProt P36871); test: G6PDH coupled assay for PGM, HsPGM; type: biochemical
T4 construct: Full length HsPGM; 6His-GST (N, cleaved yes); made in house; host or cells: E. coli BL21 (DE3) pLysS (same protocol as AfPGM)
T4 sequence (P36871 1-562): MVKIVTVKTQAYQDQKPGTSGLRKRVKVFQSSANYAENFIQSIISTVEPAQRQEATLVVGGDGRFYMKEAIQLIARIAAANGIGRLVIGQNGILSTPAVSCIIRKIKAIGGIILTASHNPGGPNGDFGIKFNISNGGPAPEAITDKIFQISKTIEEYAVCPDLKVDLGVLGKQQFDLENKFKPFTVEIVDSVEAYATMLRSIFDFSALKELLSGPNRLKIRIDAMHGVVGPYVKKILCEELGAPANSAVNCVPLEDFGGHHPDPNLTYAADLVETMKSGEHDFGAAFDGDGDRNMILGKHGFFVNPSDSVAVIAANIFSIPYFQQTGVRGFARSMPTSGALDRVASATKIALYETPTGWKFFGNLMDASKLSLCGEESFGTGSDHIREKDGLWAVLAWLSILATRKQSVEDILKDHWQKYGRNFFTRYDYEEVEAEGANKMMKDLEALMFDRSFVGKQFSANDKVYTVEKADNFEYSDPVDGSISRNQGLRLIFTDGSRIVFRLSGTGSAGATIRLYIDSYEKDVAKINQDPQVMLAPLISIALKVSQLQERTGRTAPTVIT
Procedure: as §2, §3

CaPGM = molecular target: T5, CaPGM (Candida albicans, UniProt A0A1D8PSA9); test: G6PDH coupled assay for PGM, WT CaPGM; type: biochemical; conditions: 5 nM enzyme, no preincubation
T5 sequence (A0A1D8PSA9 1-560): T3 sequence (A0A1D8PSA9 1-560 C359S)
Procedure: as §2

AfPGMC353V = molecular target: T6, AfPGMC353V (Aspergillus fumigatus, UniProt Q4WY53, C353V); test: G6PDH coupled assay for PGM, AfPGM C353V mutant; type: biochemical; conditions: 5 nM enzyme, no preincubation
T6 construct: Full length AfPGM; 6His-GST (N, cleaved yes); made in house; host or cells: E. coli BL21 (DE3) pLysS
Procedure: as §2

AfPGMC353∗ [4] = molecular target: T1, AfPGMC353∗; test: G6PDH coupled assay for PGM, AfPGMC353∗ variant (C353 the sole cysteine); type: biochemical; conditions: IC50 AfPGMC353, AfPGMC353∗ (all other cysteines mutated to serine) 5 nM, no preincubation
Procedure: as §2

AfPGM [5] = molecular target: T2, AfPGM; test: Covalent modification, intact protein mass spectrometry, AfPGM; type: binding; conditions: AfPGM:ISFP1 1:20; one adduct per protein molecule; reversed by DTT
Procedure: as §1

AfPGM [6] = molecular target: T2, AfPGM; test: biochemical
Procedure: as §2, §3

[7] = 50 µM ISFP1 preincubated 15 min with 5 nM enzyme, DTT 1 mM (Fig. S11G)

T2 sequence (Q4WY53 whole entry, the tested form may be a part): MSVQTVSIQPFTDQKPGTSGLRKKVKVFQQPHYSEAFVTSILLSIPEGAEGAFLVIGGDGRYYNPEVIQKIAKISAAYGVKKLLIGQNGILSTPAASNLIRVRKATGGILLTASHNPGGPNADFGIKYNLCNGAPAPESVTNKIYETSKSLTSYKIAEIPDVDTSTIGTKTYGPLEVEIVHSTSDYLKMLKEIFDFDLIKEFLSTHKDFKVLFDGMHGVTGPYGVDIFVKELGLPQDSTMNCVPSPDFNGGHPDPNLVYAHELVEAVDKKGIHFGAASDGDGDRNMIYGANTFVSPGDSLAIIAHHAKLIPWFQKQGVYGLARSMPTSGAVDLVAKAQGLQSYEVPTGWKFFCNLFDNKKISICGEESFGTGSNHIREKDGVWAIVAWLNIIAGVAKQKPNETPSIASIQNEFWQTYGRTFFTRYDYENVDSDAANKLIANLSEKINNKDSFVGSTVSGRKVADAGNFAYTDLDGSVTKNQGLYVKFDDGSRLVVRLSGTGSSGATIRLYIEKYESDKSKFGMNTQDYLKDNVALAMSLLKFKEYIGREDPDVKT
T6 sequence (Q4WY53 whole entry C353V): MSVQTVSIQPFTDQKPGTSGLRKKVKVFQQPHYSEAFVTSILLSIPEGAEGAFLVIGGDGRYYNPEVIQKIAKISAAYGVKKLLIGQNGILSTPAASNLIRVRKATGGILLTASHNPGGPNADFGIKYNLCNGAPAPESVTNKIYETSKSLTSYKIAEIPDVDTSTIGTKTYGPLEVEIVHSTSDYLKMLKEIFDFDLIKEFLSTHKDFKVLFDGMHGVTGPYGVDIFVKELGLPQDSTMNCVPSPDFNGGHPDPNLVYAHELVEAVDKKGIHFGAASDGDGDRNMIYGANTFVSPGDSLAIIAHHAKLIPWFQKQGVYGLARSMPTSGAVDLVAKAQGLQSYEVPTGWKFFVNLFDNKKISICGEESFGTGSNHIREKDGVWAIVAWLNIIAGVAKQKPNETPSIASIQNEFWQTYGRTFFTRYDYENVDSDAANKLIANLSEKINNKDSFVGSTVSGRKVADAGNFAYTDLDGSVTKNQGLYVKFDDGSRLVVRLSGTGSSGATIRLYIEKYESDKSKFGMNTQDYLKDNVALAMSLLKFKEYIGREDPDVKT
T1 sequence (Q4WY53 whole entry C131S/C242S/C364S): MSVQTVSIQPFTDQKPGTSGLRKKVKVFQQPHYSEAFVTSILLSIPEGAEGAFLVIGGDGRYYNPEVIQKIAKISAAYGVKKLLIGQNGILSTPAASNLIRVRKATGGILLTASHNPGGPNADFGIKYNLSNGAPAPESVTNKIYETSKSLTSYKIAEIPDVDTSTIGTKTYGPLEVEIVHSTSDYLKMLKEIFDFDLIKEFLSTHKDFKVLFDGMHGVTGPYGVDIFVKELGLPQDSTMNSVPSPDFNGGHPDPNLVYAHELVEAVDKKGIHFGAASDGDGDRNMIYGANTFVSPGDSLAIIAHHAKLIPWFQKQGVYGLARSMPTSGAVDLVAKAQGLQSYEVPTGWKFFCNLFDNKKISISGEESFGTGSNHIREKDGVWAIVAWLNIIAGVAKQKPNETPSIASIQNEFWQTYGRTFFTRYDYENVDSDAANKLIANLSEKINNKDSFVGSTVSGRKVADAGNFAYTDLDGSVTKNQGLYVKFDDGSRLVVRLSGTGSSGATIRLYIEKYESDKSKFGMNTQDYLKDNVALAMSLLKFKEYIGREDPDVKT

SMILES: O=c1ccsn1-c1cccc(Cl)c1F [ISFP1]
- Increase in protein mass after incubation with compound (AfPGMC353∗ [1]): 232 Da
- Binding to AfPGM by BLI (AfPGM [2]): bound to AfPGM in a concentration-dependent manner
- IC50 (CaPGMC359S): > 400 µM
- IC50 CaPGM C359S mutant (CaPGMC359S): No inhibition
- MIC (A. fumigatus): 10 µg/mL (≈ 43.5 µM)
- Decrease of AfPGM kcat (AfPGM [3]; 20 μM ISFP1): 10 fold
- Change of AfPGM Km (AfPGM [3]; in the presence of ISFP1): remains at the same level
- Rescue of HsPGM activity by DTT after inhibition (HsPGM; [7]): could not be rescued by DTT treatment
- IC50 (HsPGM; IC50 HsPGM, HsPGM 5 nM, no preincubation, > values: highest concentration at which the compound can solubilize): 80 ± 2 µM
- IC50 (HsPGM; enzyme preincubated with compound for 15 min (Fig. S11E, F), read-out: IC50 HsPGM after preincubation): 7.5 µM
- IC50 (CaPGM): 5 µM
- Inhibition of AfPGM C353V mutant (AfPGMC353V): does not inhibit; also recorded: not inhibited
- IC50 (AfPGMC353∗ [4]): 3 µM
- Increase in protein mass after incubation with compound (AfPGM [5]): 232 Da
- Rescue of AfPGM activity by DTT after inhibition (AfPGM [6]; [7]): rescued by the addition of DTT
- IC50 (AfPGM [6]; WT AfPGM 5 nM, no preincubation, 500 μM Glc-1P): 2 µM
